Earlier results on one molecule are cited in patent publication US20240189256A1, “COMPOSITIONS FOR PRE-SURGICAL NUTRITIONAL SUPPLEMENTS” (TM Nutrition LLC, priority 2022, published 2024).

Molecules are shown by their SMILES.

The conditions of series [1]: unless sepsis is present.
The conditions of series [2]: given orally.

For `N=C(N)NCCC[C@H](N)C(=O)O` [arginine], the “supplementation safe and well tolerated up to” value in series [1] is “up to 10 g/day”. For the same molecule, the half-life – broadly, how long it takes for the measured level to halve – in series [2] is 1.5 to 2 h.
